Measured values reported in patent US12338228B2, “NLRP3 modulators” (Innate Tumor Immunity, Inc., priority 2019, dated 2025).

These compounds were tested against T1, NLRP3 (Homo sapiens, UniProt Q96P20) (assay: Measurement of IL-1β production in PMA-differentiated THP-1 cells (NLRP3 hIL1β)).
T1 construct: host or cells: PMA-differentiated THP-1 cells
Format: cell-based
Protocol: Serial dilutions of compounds in DMSO were added to low volume 384 well plates at 100 nl/well using an ECHO 550 acoustic dispenser (Labcyte) to achieve final starting concentration of 10 μM in assay.
THP-1 cells in RPMI (Gibco, 11875) media with 10% FBS at a density of 1×10^6 cell/ml in a T175 flask were treated with a final concentration of phorbol 12-myristate 13-acetate (PMA) (Sigma,P1585) of 50 ng/ml overnight at 37° C. at 5% CO2 for differentiation. Cells were harvested the next day after rinsing well with dPBS using 0.5% trypsin. A cell solution was prepared of 1×10^6 cells/ml for 50,000 cells in 50 μl/well in RPMI media with 2% FBS. Cells were plated using a multichannel pipette onto the compound dilutions in Greiner, 384 well, black clear bottom tissue culture treated plates (781090). The plates were incubated in 37° C. incubator at 5% CO2 for 2 hours.
After the 2 hour incubation, the cell plates were spun in the centrifuge for 5 minutes at 1200 rpm. Using the Felix (CyBio), 8 μl of the supernatant was transferred to 384 well, low volume, white proxy plates. (Perkin Elmer, 6008230). A human IL1beta hTRF kit was used to analyze the supernatant (CISBIO, 62HIL1BPEG). The kit instructions were followed for preparing the IL1Beta standard curve and then the antibodies from the kit were diluted 1:40 rather than 1:20 as kit instructed. Once combined, the antibodies were added across the plates, 5 μl/well. The plates were sealed and incubated at 4° C. overnight. The plates were then read on the Perkin Elmer EnVision at 665/615 nm using the hTRF laser.

T1 sequence (Q96P20 whole entry): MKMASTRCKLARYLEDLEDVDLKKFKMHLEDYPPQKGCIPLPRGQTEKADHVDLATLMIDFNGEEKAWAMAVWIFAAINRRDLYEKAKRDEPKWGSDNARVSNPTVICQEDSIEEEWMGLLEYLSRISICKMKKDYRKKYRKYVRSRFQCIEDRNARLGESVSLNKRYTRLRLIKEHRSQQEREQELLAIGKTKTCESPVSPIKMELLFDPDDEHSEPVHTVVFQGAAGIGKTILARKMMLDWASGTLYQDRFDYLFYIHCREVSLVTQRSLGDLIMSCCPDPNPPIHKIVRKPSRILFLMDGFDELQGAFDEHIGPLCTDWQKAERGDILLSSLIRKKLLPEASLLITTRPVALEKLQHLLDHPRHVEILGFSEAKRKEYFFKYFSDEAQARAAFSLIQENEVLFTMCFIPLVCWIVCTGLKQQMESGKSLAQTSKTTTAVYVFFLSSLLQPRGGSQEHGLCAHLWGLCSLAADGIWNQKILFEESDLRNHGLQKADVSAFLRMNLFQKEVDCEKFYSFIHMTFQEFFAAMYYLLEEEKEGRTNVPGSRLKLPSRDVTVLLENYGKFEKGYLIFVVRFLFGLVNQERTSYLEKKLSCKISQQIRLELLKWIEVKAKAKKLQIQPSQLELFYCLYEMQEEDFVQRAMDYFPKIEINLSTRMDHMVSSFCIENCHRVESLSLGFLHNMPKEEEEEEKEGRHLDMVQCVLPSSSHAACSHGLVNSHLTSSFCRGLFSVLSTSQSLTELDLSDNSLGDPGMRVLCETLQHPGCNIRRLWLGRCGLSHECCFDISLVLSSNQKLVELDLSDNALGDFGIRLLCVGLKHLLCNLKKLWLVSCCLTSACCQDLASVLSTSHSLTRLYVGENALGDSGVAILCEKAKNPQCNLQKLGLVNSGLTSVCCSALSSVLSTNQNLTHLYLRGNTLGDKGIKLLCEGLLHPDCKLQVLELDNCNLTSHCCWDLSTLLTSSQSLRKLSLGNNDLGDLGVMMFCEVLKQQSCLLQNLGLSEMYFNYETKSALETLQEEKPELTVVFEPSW

Compound | EC50
3-((2-Amino-3-cyclopentyl-7-(1H-pyrazol-5-yl)quinolin-4-yl)amino)propan-1-ol [Example 16] | 260 nM
Nc1nc2cc(-c3cc[nH]n3)ccc2c(N[C@H]2CC[C@H](O)C2)c1F [Example 2, (1 S,3 S)-3-((2-Amino-3-fluoro-7-(1H-pyrazol-3-yl)quinolin-4-yl)amino)cyclopentan-1-ol] | 600 nM
Cc1cc(-c2cc[nH]n2)cc2nc(N)cc(N[C@H]3CC[C@H](O)C3)c12 [Example 5, (1S,3S)-3-((2-Amino-5-methyl-7-(1H-pyrazol-3-yl)quinolin-4-yl)amino)cyclopentan-1-ol] | 4000 nM
Cc1cc(-c2cc[nH]n2)cc2nc(N)cc(NCc3cc[nH]n3)c12 [Example 6, N4-((1H-Pyrazol-3-yl)methyl)-5-methyl-7-(1H-pyrazol-3-yl)quinoline-2,4-diamine] | 1400 nM
Nc1cc(N[C@H]2CCOC2)c2c(F)cc(-c3cc[nH]n3)cc2n1 [Example 10, (S)-5-Fluoro-7-(1H-pyrazol-3-yl)-N4-(tetrahydrofuran-3-yl)quinoline-2,4-diamine] | 850 nM
Nc1cc(NCc2ccn[nH]2)c2ccc(-c3ccn[nH]3)c(F)c2n1 [Example 11, N4-((1H-Pyrazol-5-yl)methyl)-8-fluoro-7-(1H-pyrazol-5-yl)quinoline-2,4-diamine] | 710 nM
Cc1c(N)nc2cc(-c3ccn[nH]3)ccc2c1NCCCO [Example 12, 3-((2-Amino-3-methyl-7-(1H-pyrazol-5-yl)quinolin-4-yl)amino)propan-1-ol] | 2900 nM
Cc1c(N)nc2cc(-c3ccn[nH]3)ccc2c1NCc1ccn[nH]1 [Example 13, N4-((1H-Pyrazol-5-yl)methyl)-3-methyl-7-(1H-pyrazol-5-yl)quinoline-2,4-diamine] | 450 nM
Nc1nc2cc(-c3ccn[nH]3)ccc2c(NCc2ccccn2)c1C1CCCC1 [Example 15, 3-Cyclopentyl-7-(1H-pyrazol-5-yl)-N4-(pyridin-2-ylmethyl)quinoline-2,4-diamine] | 440 nM

Further compounds by falling EC50, results first:

EC50 | Compound
350 nM | Nc1nc2cc(-c3cc[nH]n3)ccc2c(NCCCO)c1Cl [Example 3, 3-((2-Amino-3-chloro-7-(1H-pyrazol-3-yl)quinolin-4-yl)amino)propan-1-ol]
330 nM | Nc1cc(NCCCO)c2ccc(-c3cc[nH]n3)c(F)c2n1 [Example 4, 3-((2-Amino-8-fluoro-7-(1H-pyrazol-3-yl)quinolin-4-yl)amino)propan-1-ol]
290 nM | Nc1cc(NCc2cc[nH]n2)c2c(F)cc(-c3cc[nH]n3)cc2n1 [Example 9, N4-((1H-Pyrazol-3-yl)methyl)-5-fluoro-7-(1H-pyrazol-3-yl)quinoline-2,4-diamine]
260 nM | Nc1nc2cc(-c3ccn[nH]3)ccc2c(NCCO)c1C1CCCC1 [Example 14, 2-((2-Amino-3-cyclopentyl-7-(1H-pyrazol-5-yl)quinolin-4-yl)amino)ethan-1-ol]
230 nM | Nc1cc(NCCCO)c2c(F)cc(-c3cc[nH]n3)cc2n1 [Example 7, 3-((2-Amino-5-fluoro-7-(1H-pyrazol-3-yl)quinolin-4-yl)amino)propan-1-ol]
230 nM | Nc1cc(N[C@H]2CC[C@H](O)C2)c2c(F)cc(-c3cc[nH]n3)cc2n1 [Example 8, (1S,3S)-3-((2-Amino-5-fluoro-7-(1H-pyrazol-3-yl)quinolin-4-yl)amino)cyclopentan-1-ol]
160 nM | Nc1nc2cc(-c3cc[nH]n3)ccc2c(NCCCO)c1F [Example 1, 3-((2-Amino-3-fluoro-7-(1H-pyrazol-3-yl)quinolin-4-yl)amino)propan-1-ol]
